Measurements taken from US20100152129A1 (priority 2008, published 2010).

Test system: Panc-1 cell line
Assay: Gene expression profile using RTQ-PCR
Type: cell-based
Settings: Panc1, RTQ-PCR
Experimental: The objective of the experiment was to evaluate the synergistic effect of drug combination (Gemcitabine with […]) as compared to individual use of the same. The synergistic effect of the compound or drug combination in the Panc-1 cell line was measured in terms of gene expression and expressed as fold changes as compared to the cell control with no drug treatment. Methodology: Cell lines treated with drugs (Gemcitabine, […] or both) were used for total RNA isolation using a commercial RNA extraction kit (Qiagen Corporation, Germany). […] This was followed by real time quantitative polymerase chain reaction (RTQ PCR) using gene specific primers and standard thermal program of initial denaturation at 95° C. for 5 mins and 40 cycles of 95° C. for 10 seconds, followed by […] for 30 seconds (Realplex PCR machine from Eppendorf, Germany). Quantitative measurement of products made during PCR cycles was normalized against a housekeeping gene (Actin) and used to measure the gene expression as fold changes as compared to respective control (FIG. 5).

In the case of `CN1CC[C@@H](c2c(O)cc(O)c3c(=O)cc(-c4ccccc4Cl)oc23)[C@@H]1CO.Cl`, the “CDK2 gene expression vs control cells with no drug treatment” value is reported as −0.21 log 2 fold ratio, the “CDK4 gene expression vs control cells with no drug treatment” value is reported as −0.44 log 2 fold ratio and the “CDK6 gene expression vs control cells with no drug treatment” value is reported as −0.23 log 2 fold ratio. The “CDK8 gene expression vs control cells with no drug treatment” value was 0.11 log 2 fold ratio, the “DDIT4 gene expression vs control cells with no drug treatment” value was −1.88 log 2 fold ratio and the “RRM1 gene expression vs control cells with no drug treatment” value was 0.18 log 2 fold ratio. For the same molecule, the “RRM2 gene expression vs control cells with no drug treatment” value was 0.16 log 2 fold ratio, the “p14 gene expression vs control cells with no drug treatment” value was −0.50 log 2 fold ratio and the “p18 gene expression vs control cells with no drug treatment” value was −0.17 log 2 fold ratio. For the same molecule, the “p27 gene expression vs control cells with no drug treatment” value was −0.60 log 2 fold ratio.
`Nc1ccn([C@@H]2O[C@H](CO)[C@@H](O)C2(F)F)c(=O)n1` [drawing 1] was tested, and the “DLG5 gene expression vs control cells with no drug treatment” value was −0.53 log 2 fold ratio, the “E2F1 gene expression vs control cells with no drug treatment” value was 0.98 log 2 fold ratio and the “MAPK1 gene expression vs control cells with no drug treatment” value was −0.18 log 2 fold ratio. The “PDCD2 gene expression vs control cells with no drug treatment” value was −1.27 log 2 fold ratio, the “POLB gene expression vs control cells with no drug treatment” value was −0.94 log 2 fold ratio and the “PTK7 gene expression vs control cells with no drug treatment” value was −0.53 log 2 fold ratio. For the same molecule, the “PTN gene expression vs control cells with no drug treatment” value was 0.68 log 2 fold ratio, the “RASA1 gene expression vs control cells with no drug treatment” value was −0.04 log 2 fold ratio and the “REV3L gene expression vs control cells with no drug treatment” value was −0.28 log 2 fold ratio. The “SSTR2 gene expression vs control cells with no drug treatment” value was −1.17 log 2 fold ratio and the “STAT4 gene expression vs control cells with no drug treatment” value was −0.54 log 2 fold ratio.
In the case of `CC[C@H](CO)Nc1nc(NCc2ccccc2)c2ncn(C(C)C)c2n1` [drawing 2], the “DLG5 gene expression vs control cells with no drug treatment” value is reported as −0.71 log 2 fold ratio, the “E2F1 gene expression vs control cells with no drug treatment” value is reported as 0.03 log 2 fold ratio and the “MAPK1 gene expression vs control cells with no drug treatment” value is reported as −0.29 log 2 fold ratio. The “PDCD2 gene expression vs control cells with no drug treatment” value was −0.05 log 2 fold ratio, the “POLB gene expression vs control cells with no drug treatment” value was −0.26 log 2 fold ratio and the “PTK7 gene expression vs control cells with no drug treatment” value was 0.11 log 2 fold ratio. The “PTN gene expression vs control cells with no drug treatment” value was −0.28 log 2 fold ratio, the “RASA1 gene expression vs control cells with no drug treatment” value was −0.41 log 2 fold ratio and the “REV3L gene expression vs control cells with no drug treatment” value was −0.27 log 2 fold ratio. For the same molecule, the “SSTR2 gene expression vs control cells with no drug treatment” value was −0.37 log 2 fold ratio and the “STAT4 gene expression vs control cells with no drug treatment” value was −1.66 log 2 fold ratio.
In the case of `CN1CC[C@@H](c2c(O)cc(O)c3c(=O)cc(-c4ccc(C(F)(F)F)cc4Cl)oc23)[C@@H]1CO.Cl` [drawing 3], the “DLG5 gene expression vs control cells with no drug treatment” value is reported as −1.01 log 2 fold ratio, the “E2F1 gene expression vs control cells with no drug treatment” value is reported as −0.43 log 2 fold ratio and the “MAPK1 gene expression vs control cells with no drug treatment” value is reported as 0.64 log 2 fold ratio. The “PDCD2 gene expression vs control cells with no drug treatment” value was 0.77 log 2 fold ratio, the “POLB gene expression vs control cells with no drug treatment” value was −0.05 log 2 fold ratio and the “PTK7 gene expression vs control cells with no drug treatment” value was 0.30 log 2 fold ratio. For the same molecule, the “PTN gene expression vs control cells with no drug treatment” value was 0.40 log 2 fold ratio, the “RASA1 gene expression vs control cells with no drug treatment” value was 0.10 log 2 fold ratio and the “REV3L gene expression vs control cells with no drug treatment” value was −0.13 log 2 fold ratio. The “SSTR2 gene expression vs control cells with no drug treatment” value was −0.69 log 2 fold ratio and the “STAT4 gene expression vs control cells with no drug treatment” value was −1.52 log 2 fold ratio.
`CN1CCC(c2c(O)cc(O)c3c(=O)cc(-c4ccccc4Cl)oc23)C(O)C1` (centres unmarked) [drawing 5] was tested, and the “DLG5 gene expression vs control cells with no drug treatment” value was −1.19 log 2 fold ratio, the “E2F1 gene expression vs control cells with no drug treatment” value was −0.62 log 2 fold ratio and the “MAPK1 gene expression vs control cells with no drug treatment” value was −2.31 log 2 fold ratio. The “PDCD2 gene expression vs control cells with no drug treatment” value was 0.50 log 2 fold ratio, the “POLB gene expression vs control cells with no drug treatment” value was 0.34 log 2 fold ratio and the “PTK7 gene expression vs control cells with no drug treatment” value was 0.16 log 2 fold ratio. The “PTN gene expression vs control cells with no drug treatment” value was −0.24 log 2 fold ratio, the “RASA1 gene expression vs control cells with no drug treatment” value was −1.10 log 2 fold ratio and the “REV3L gene expression vs control cells with no drug treatment” value was −1.42 log 2 fold ratio. The “SSTR2 gene expression vs control cells with no drug treatment” value was −2.98 log 2 fold ratio and the “STAT4 gene expression vs control cells with no drug treatment” value was −1.39 log 2 fold ratio.
For `Nc1ccn([C@@H]2O[C@H](CO)[C@@H](O)C2(F)F)c(=O)n1` [drawing 10], the “CDK2 gene expression vs control cells with no drug treatment” value was 0.50 log 2 fold ratio, the “CDK4 gene expression vs control cells with no drug treatment” value was −0.93 log 2 fold ratio and the “CDK6 gene expression vs control cells with no drug treatment” value was −0.53 log 2 fold ratio. For the same molecule, the “CDK8 gene expression vs control cells with no drug treatment” value was 0.86 log 2 fold ratio, the “DDIT4 gene expression vs control cells with no drug treatment” value was 1.01 log 2 fold ratio and the “RRM1 gene expression vs control cells with no drug treatment” value was 0.25 log 2 fold ratio. The “p14 gene expression vs control cells with no drug treatment” value was −0.17 log 2 fold ratio, the “p18 gene expression vs control cells with no drug treatment” value was 1.06 log 2 fold ratio and the “p27 gene expression vs control cells with no drug treatment” value was −0.16 log 2 fold ratio.
With `CC[C@H](CO)Nc1nc(NCc2ccccc2)c2ncn(C(C)C)c2n1` [drawing 11] the “CDK2 gene expression vs control cells with no drug treatment” value was 0.29 log 2 fold ratio, the “CDK4 gene expression vs control cells with no drug treatment” value was −0.06 log 2 fold ratio and the “CDK6 gene expression vs control cells with no drug treatment” value was 0.75 log 2 fold ratio. The “CDK8 gene expression vs control cells with no drug treatment” value was 0.82 log 2 fold ratio, the “DDIT4 gene expression vs control cells with no drug treatment” value was −0.84 log 2 fold ratio and the “RRM1 gene expression vs control cells with no drug treatment” value was 0.11 log 2 fold ratio. For the same molecule, the “RRM2 gene expression vs control cells with no drug treatment” value was 0.63 log 2 fold ratio, the “p14 gene expression vs control cells with no drug treatment” value was −0.05 log 2 fold ratio and the “p18 gene expression vs control cells with no drug treatment” value was 0.56 log 2 fold ratio. The “p27 gene expression vs control cells with no drug treatment” value was −0.04 log 2 fold ratio.
`CN1CC[C@@H](c2c(O)cc(O)c3c(=O)cc(-c4ccc(C(F)(F)F)cc4Cl)oc23)[C@@H]1CO.Cl` [drawing 12] was tested, and the “CDK2 gene expression vs control cells with no drug treatment” value was 0.96 log 2 fold ratio, the “CDK4 gene expression vs control cells with no drug treatment” value was 0.73 log 2 fold ratio and the “CDK6 gene expression vs control cells with no drug treatment” value was 1.48 log 2 fold ratio. The “CDK8 gene expression vs control cells with no drug treatment” value was 0.20 log 2 fold ratio, the “DDIT4 gene expression vs control cells with no drug treatment” value was −0.31 log 2 fold ratio and the “RRM1 gene expression vs control cells with no drug treatment” value was −0.24 log 2 fold ratio. The “RRM2 gene expression vs control cells with no drug treatment” value was 0.04 log 2 fold ratio, the “p14 gene expression vs control cells with no drug treatment” value was −0.59 log 2 fold ratio and the “p18 gene expression vs control cells with no drug treatment” value was −0.12 log 2 fold ratio. For the same molecule, the “p27 gene expression vs control cells with no drug treatment” value was −0.30 log 2 fold ratio.
